{"source": "paper PMC2972358", "about": "(Journal of molecular biology, 2010)", "key": {"human MC1R [1]": {"target": "T1, human MC1R (Homo sapiens, UniProt Q01726)", "T1 sequence (Q01726 whole entry)": "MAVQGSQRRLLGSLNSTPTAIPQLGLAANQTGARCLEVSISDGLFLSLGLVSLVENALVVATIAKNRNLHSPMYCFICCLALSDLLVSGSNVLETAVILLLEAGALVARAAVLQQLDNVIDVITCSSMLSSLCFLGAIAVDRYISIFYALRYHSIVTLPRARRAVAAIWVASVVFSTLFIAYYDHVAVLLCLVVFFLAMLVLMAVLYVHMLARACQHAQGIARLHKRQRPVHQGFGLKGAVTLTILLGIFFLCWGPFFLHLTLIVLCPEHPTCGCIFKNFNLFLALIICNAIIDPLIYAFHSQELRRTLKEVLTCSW", "experiment": "Eu-NDP-MSH displacement binding assay, MC1R"}, "human MC4R": {"target": "human MC4R (Homo sapiens, UniProt P32245)", "sequence (P32245 whole entry)": "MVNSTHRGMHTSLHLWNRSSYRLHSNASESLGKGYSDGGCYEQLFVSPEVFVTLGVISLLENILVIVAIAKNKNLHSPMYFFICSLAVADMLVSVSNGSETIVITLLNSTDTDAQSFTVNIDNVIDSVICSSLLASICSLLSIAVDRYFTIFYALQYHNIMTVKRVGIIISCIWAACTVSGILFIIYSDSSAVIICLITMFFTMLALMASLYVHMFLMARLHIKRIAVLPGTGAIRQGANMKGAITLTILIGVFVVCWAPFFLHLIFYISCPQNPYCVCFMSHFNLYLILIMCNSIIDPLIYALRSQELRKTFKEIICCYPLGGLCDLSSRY", "experiment": "Eu-NDP-MSH displacement binding assay, MC4R"}, "human MC1R [2]": {"target": "T1, human MC1R", "details": "at high concentration, printed in the Ki column, cited from earlier work"}, "[3]": {"target": "human melanocortin receptor MC1R (Homo sapiens, UniProt Q01726)", "sequence (Q01726 whole entry)": "as the sequence (Q01726 whole entry) above", "type": "cell-based", "details": "absence of NDP-MSH; basal response taken as zero; HEK-293 cells with human MC1R"}}, "note": "Like-named read-outs stand apart in the source and are kept apart here. Bridges are numbered along the chain shown (N, C = ends). Where no end group is shown, it is not given here.", "data": [{"substance": "Ac-KKVVRPRTPLSAPCVATRNSCKPPAPACCDPCASCYCRFFNAFCYCRVLSLNC-NH2 (disulfide 14-29, 21-35, 28-46, 32-53, 37-44) [chi(+1 −1 +1)]", "values": [{"measurement": "Ki", "setting": "human MC1R [1]", "result": "4.9 ± 1.1", "unit": "nM"}, {"measurement": "MC1R fold diff.", "setting": "human MC1R [1]; fold difference of MC1R Ki relative to ASIP [chi(+1 +1 +1)]", "result": 7.0}, {"measurement": "Ki", "setting": "human MC4R", "result": "2.1 ± 0.3", "unit": "nM"}, {"measurement": "MC4R fold diff.", "setting": "human MC4R; fold difference of MC4R Ki relative to ASIP [chi(+1 +1 +1)]", "result": 1.6}]}, {"substance": "CVRLHESCLGQQVPCCDPAATCYCRFFNAFCYCR (also: bicyclic or more (positions not given here)) [chi(−1 −1 0)]", "values": [{"measurement": "MC1R suppression of NDP-MSH binding (partial displacement of agonist)", "setting": "human MC1R [2]", "result": 26, "unit": "%"}]}, {"substance": "CVRLHESCLGQQVPCCDPAATCYCRFFRSACYCR (also: bicyclic or more (positions not given here)) [chi(−1 +1 0)]", "values": [{"measurement": "Effect on cAMP production at MC1R (functional class)", "setting": "[3]", "result": "agonists"}]}, {"substance": "CVRLHESCLGQQVPCCDPCATCYCRFFNAFCYCRKLGTAMNPCSRT (bicyclic or more) [AgRP [chi(−1 −1 −1)], reference compound]", "values": [{"measurement": "MC1R suppression of NDP-MSH binding (partial displacement of agonist)", "setting": "human MC1R [2]", "result": 47, "unit": "%"}, {"measurement": "MC1R suppression of NDP-MSH binding (partial displacement of agonist)", "setting": "human MC1R [2]; listed as chi(−1 −1 −1)", "result": 47, "unit": "%"}]}]}
